Measured values taken from US20080319001A1, “Cancer Treatment Using Specific 3,6,9-Substituted Acridines” (priority 2005, published 2008).
Where two headings read alike, the source gives them in different places.

Columns and labels:
Thermodynamic solubility = assay type: physicochemical; conditions: for solubility at 24 h: thermodynamic from solid, read-out: Solubility Free Base equivalent
Experimental: Thermodynamic solubility values were determined in each of 0.1M HCl, Deionised water, pH6.8 phosphate buffer, 0.9% saline and 5% dextrose.
1.25-1.5 mg of sample was weighed out into a 1 ml HPLC tube to which 0.25 ml of the dissolution media was added to allow for determination of solubility up to 5 mg/ml. This suspension was then shaken for 24 hours before measurement of the pH, filtration (through a 96 well plate with a glass fibre filter membrane), dilution and analysis of the neat and diluted solutions at different injection volumes on a generic 5 minute HPLC method.
A reference solution was prepared in DMSO for comparison and calculation of the test solubilities. XRPD patterns were measured of remaining solids from experiments where complete dissolution was not achieved.
It is believed the large additional peak noted in the HPLC chromatograms is due to a rotamer of the parent compound. This should therefore be included in the overall peak area assessment. Therefore, the largest and second largest peaks noted in the reference solution were added together as were the same peaks (i.e. the same retention times) in the test sample injections.

HPLC solution stability = assay type: physicochemical
Experimental: Due to the generally low solubility of these compounds in 0.9% NaCl and 5% dextrose it was decided to mix these media with 50% Iso-propanol (IPA) to maintain full dissolution of the compound during these studies.
The remaining 5 mg/ml DMSO stock solution from the pKa determination was used for the stability studies. This solution had been stored in the fridge for several days before these stability studies. A solution with a concentration of 0.1 mg/ml was prepared for each experiment (50 fold dilution of DMSO stock). Stability trials were carried out at 4° C. (fridge) and 25° C. (on top of shaker at 25° C.) and at time points of 0, 1 and 7 days. In the case of 100% IPA data was collected at 0, 1 and 14 days after storage at 25° C. The HPLC purity method discussed in section 4.5 below was used for purity analysis. The largest and second largest peaks were added together due to separation of rotamers as discussed above.

[1] = pKa measurement (Sirius GlpKa, potentiometric and UV titration); assay type: physicochemical
Experimental: Pka determination was performed on a Sirius GlpKa instrument equipped with a D-PAS (Dip-Probe Absorption Spectroscopy) attachment. Measurements were made by potentiometric and UV titration in MeOH:H2O mixtures at 25° C. The titration media was ionic strength adjusted with 0.15 M KCl. The values found in the MeOH:H2O mixtures were extrapolated to 0% co-solvent via a Yasuda-Shedlovsky extrapolation. Prediction of pKa values was made using ACD v8.07 software.
BSG01-4.14 from aqueous UV measurement (Potentiometry gave 4.15 although incomplete curves were collected). Other values from potentiometric in Aqueous/MeOH mixtures followed by Yasuda-Shedlovsky extrapolation to 0% MeOH. All pKas basic from slope of extrapolation. P BSG17—Values from potentiometric titrations in Aqueous/MeOH mixtures followed by Yasuda-Shedlovsky extrapolation to 0% MeOH. All pKas basic from slop of extrapolation. PKas 2 and 3 for titration in 30% MeOH removed from YS extrapolation due to precipitation.

[2] = Cytotoxicity / growth inhibition, MCF7; assay type: cell-based; conditions: human, MCF7 cells; read-out: Cytotoxic IC50 vs. MCF7
[3] = Pharmacokinetic evaluation in mice (plasma kinetics); assay type: in vivo, mouse; conditions: for AUC(0-t): female, MF1, mouse
Experimental: The test article is identified as BSG17 and has been studied in comparison to BSG01 (BRACO-19). The vials containing bulk test article were stored at room temperature (15-30° C.).
The test compound was reconstituted in 0.9% physiological saline B.P. to the required final concentrations. To ensure the stability of the test formulations, prepared formulations were administered within two hours of preparation.
Treated mice received a single bolus intravenous injection or oral gavage of the test formulations at a dose-volume of […] bodyweight. Control mice were untreated.
The mouse was selected because it is a rodent species and is acceptable to the regulatory authorities for pharmacokinetic studies. Dose levels of 1 mg/kg (intravenous) and 20 mg/kg (oral) were selected for this study.
Female MF1 mice in the weight rang of 26-30 g (6 to 8 weeks of age) were obtained from the BRF Facility, SGHMS/Harlan UK, Bicester and were individually identified using a permanent tail mark (using a non-toxic marker pen). The test article was administered to thirty-six (36) mice after a period of seven (7) days of acclimatisation to the study room.
Blood samples were obtained from three mice per time point and at the time points as specified below:
Blood samples were collected by cardiac puncture with mice held under deep halothane anaesthesia. After sampling mice were euthanased by cervical dislocation.
Samples were collected into pre-heparinised syringes and the samples transferred into 1 ml eppendorf tubes. Plasma was prepared by centrifugation, transferred to clean, labelled eppendorf tubes and frozen at approximately −20° C. pending analysis.
Samples were analysed using HPLC or GC-MS/MS methodology.
Composite plasma concentration time curves were generated over the period of 6-8 hours after the bolus iv or oral dose was administered.

[4] = 0.9% NaCl mixed with 50% IPA, 0 days
[5] = 0.9% NaCl mixed with 50% IPA, 1 day, 4 ° C.
[6] = 0.9% NaCl mixed with 50% IPA, 1 day, 25 ° C.
[7] = 0.9% NaCl mixed with 50% IPA, 7 days, 4 ° C.
[8] = 0.9% NaCl mixed with 50% IPA, 7 days, 25 ° C.
[9] = 5% Dextrose mixed with 50% IPA, 0 days
[10] = 5% Dextrose mixed with 50% IPA, 1 day, 4 ° C.
[11] = 5% Dextrose mixed with 50% IPA, 1 day, 25 ° C.
[12] = 5% Dextrose mixed with 50% IPA, 7 days, 4 ° C.
[13] = 5% Dextrose mixed with 50% IPA, 7 days, 25 ° C.

SMILES: CN(C)c1ccc(Nc2c3ccc(NC(=O)CCN4CCCC4)cc3nc3cc(NC(=O)CCN4CCCC4)ccc23)cc1 [BSG01]
- PH of unfiltered Saturated solution (Thermodynamic solubility; 0.1M HCl): 1.25
- PH of unfiltered Saturated solution (Thermodynamic solubility; 0.9% NaCl): 9.80
- solubility at 24 h (Thermodynamic solubility; 0.9% saline, saline or isotonic, 0.9% NaCl, 24 hours): < 1 µg/mL
- PH of unfiltered Saturated solution (Thermodynamic solubility; 5% Dextrose): 8.26
- PH of unfiltered Saturated solution (Thermodynamic solubility; Water): 8.66
- Solubility Free Base equivalent (Thermodynamic solubility; Water, 24 hours): <1 µg/mL
- solubility at 24 h (Thermodynamic solubility; aqueous buffer, pH 6.8 phosphate buffer, 24 hours): 2630 µg/mL
- solubility at 24 h (Thermodynamic solubility; deionised water, Water, 24 hours): < 1 µg/mL
- PH of unfiltered Saturated solution (Thermodynamic solubility; pH 6.8 phosphate buffer): 7.45
- solubility at 24 h (Thermodynamic solubility; saline or isotonic, 5% Dextrose, 24 hours): 220 µg/mL
- solubility at 24 h (Thermodynamic solubility; simulated gastric fluid, 0.1M HCl, 24 hours): > 5000 µg/mL
- Combined rotamer purity (HPLC solution stability; [4]): 95.4
- Purity larger rotamer peak (HPLC solution stability; [4]): 89.8
- Purity smaller rotamer peak (HPLC solution stability; [4]): 5.7
- Combined rotamer purity (HPLC solution stability; [5]): 95.7
- Purity larger rotamer peak (HPLC solution stability; [5]): 86.8
- Purity smaller rotamer peak (HPLC solution stability; [5]): 8.9
- Combined rotamer purity (HPLC solution stability; [6]): 93.5
- Purity larger rotamer peak (HPLC solution stability; [6]): 82.3
- Purity smaller rotamer peak (HPLC solution stability; [6]): 11.2
- Combined rotamer purity (HPLC solution stability; [7]): 66.8
- Purity larger rotamer peak (HPLC solution stability; [7]): 47.5
- Purity smaller rotamer peak (HPLC solution stability; [7]): 19.4
- Combined rotamer purity (HPLC solution stability; [8]): 47.6
- Purity larger rotamer peak (HPLC solution stability; [8]): 35.1
- Purity smaller rotamer peak (HPLC solution stability; [8]): 12.5
- Combined rotamer purity (HPLC solution stability; [9]): 94.8
- Purity larger rotamer peak (HPLC solution stability; [9]): 88.7
- Purity smaller rotamer peak (HPLC solution stability; [9]): 6.1
- Combined rotamer purity (HPLC solution stability; [10]): 94.5
- Purity larger rotamer peak (HPLC solution stability; [10]): 84.5
- Purity smaller rotamer peak (HPLC solution stability; [10]): 10.00
- Combined rotamer purity (HPLC solution stability; [11]): 94.5
- Purity larger rotamer peak (HPLC solution stability; [11]): 79.5
- Purity smaller rotamer peak (HPLC solution stability; [11]): 15.0
- Combined rotamer purity (HPLC solution stability; [12]): 79.3
- Purity larger rotamer peak (HPLC solution stability; [12]): 48.4
- Purity smaller rotamer peak (HPLC solution stability; [12]): 30.9
- Combined rotamer purity (HPLC solution stability; [13]): 68.0
- Purity larger rotamer peak (HPLC solution stability; [13]): 35.2%
- Purity smaller rotamer peak (HPLC solution stability; [13]): 32.8
- Combined rotamer purity (HPLC solution stability; 100% IPA, 0 days): 91.9
- Purity larger rotamer peak (HPLC solution stability; 100% IPA, 0 days): 86.4
- Purity smaller rotamer peak (HPLC solution stability; 100% IPA, 0 days): 5.5
- Combined rotamer purity (HPLC solution stability; 100% IPA, 1 day, 25 ° C.): 93.2
- Purity larger rotamer peak (HPLC solution stability; 100% IPA, 1 day, 25 ° C.): 87.2
- Purity smaller rotamer peak (HPLC solution stability; 100% IPA, 1 day, 25 ° C.): 6.0
- Combined rotamer purity (HPLC solution stability; 100% IPA, 14 days, 25 ° C.): 94.0
- Purity larger rotamer peak (HPLC solution stability; 100% IPA, 14 days, 25 ° C.): 82.8
- Purity smaller rotamer peak (HPLC solution stability; 100% IPA, 14 days, 25 ° C.): 11.2
- pKa ([1]; UV + Pot, 25° C., 0.15 M KCl, read-out: Measured pKa, pKa1): 4.15
- pKa ([1]; aqueous UV, read-out: pKa from aqueous UV measurement): 4.14
- pKa ([1]; potentiometric in aqueous/MeOH, Yasuda-Shedlovsky extrapolation to 0% MeOH, read-out: Measured pKa, pKa2): 8.14
- pKa ([1]; potentiometric in aqueous/MeOH, Yasuda-Shedlovsky extrapolation to 0% MeOH, read-out: Measured pKa, pKa3): 9.08
- pKa ([1]; potentiometric in aqueous/MeOH, Yasuda-Shedlovsky extrapolation to 0% MeOH, read-out: Measured pKa, pKa4): 9.31
- pKa ([1]; titration medium, ionic strength adjusted with 0.15 M KCl, potentiometry, incomplete curves, read-out: pKa from potentiometry): 4.15
- IC50 at 96 h [2]: 2530 nM
- AUC(0-t) ([3]; Table 3): 0.96 µM·h
- AUC(0-t) ([3]; unit inferred): 0.96 µM·h
- Cmax ([3]; mouse, female MF1 mice): 1900 nM
- clearance ([3]; mouse, female MF1 mice): 1 mL/min
- half-life ([3]; mouse, female MF1 mice, single dose (1 mg/kg iv or 20 mg/kg oral; route not stated with values)): 1.1 h
